molecular target: T1, cloned human CRTH2 receptor (Homo sapiens, UniProt Q9Y5Y4); assay: Radioligand membrane binding assay: inhibition of [3H] PGD2 binding to CRTH2 (Scintillation Proximity Assay); details: inhibition of [3H] PGD2 binding to membranes of HEK-293 cells stably expressing human CRTH2; SPA; 10 point curve from 10 μM; room temperature, approximately 2 hours
T1 construct: purchased Biosignal; host or cells: HEK-293 cells stably expressing human CRTH2 and G-alpha-16 (membranes)
T1 sequence (Q9Y5Y4 1-395): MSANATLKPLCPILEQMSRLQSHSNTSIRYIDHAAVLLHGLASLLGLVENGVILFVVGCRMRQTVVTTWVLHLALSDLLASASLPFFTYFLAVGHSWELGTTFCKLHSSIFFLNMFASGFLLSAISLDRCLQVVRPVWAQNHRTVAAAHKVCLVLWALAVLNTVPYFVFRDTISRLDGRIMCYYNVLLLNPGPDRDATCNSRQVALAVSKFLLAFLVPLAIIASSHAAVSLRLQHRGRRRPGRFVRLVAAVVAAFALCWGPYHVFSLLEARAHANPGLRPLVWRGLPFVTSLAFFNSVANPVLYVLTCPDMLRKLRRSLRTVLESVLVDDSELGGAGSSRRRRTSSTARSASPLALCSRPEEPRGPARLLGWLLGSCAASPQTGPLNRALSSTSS
Outline: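 Scintillation proximity binding of [3H] PGD2 (at KD or lower) to membranes of HEK-293 cells stably expressing human CRTH2, in 50 mM Tris-HCl pH 7.5, 5 mM MgCl2, 1 mM EDTA. Ten-point 3-fold series from 10 μM final, ~2 h at room temperature; cold PGD2 defines NSB; percent inhibition, duplicate runs (n=2).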

Ki	SMILES
< 60 µM	CC(=O)N(c1ccccc1)[C@H]1C[C@@H](C)N(C(=O)c2ccc(F)cc2)c2ccccc21 [Compound A-58]
< 10 µM	CC(=O)N(c1ccccc1)[C@H]1C[C@@H](C)N(C(=O)c2ccno2)c2ccccc21 [Compound A-70, (2R,4S)-cis-N-[1-(isoxazole-5-carbonyl)-2-methyl-1,2,3,4-tetrahydro-quinolin-4-yl]-N-phenyl-acetamide]
< 10 µM	CCC(=O)N(c1ccccc1)[C@H]1C[C@@H](C)N(C(=O)c2ccc(N3CCOCC3)cc2)c2ccccc21 [Compound A-120, (2R,4S)-cis-N-[2-methyl-1-(4-morpholin-4-yl-benzoyl)-1,2,3,4-tetrahydro-quinolin-4-yl]-N-phenyl-propionamide]
< 60 µM	COc1cccc(C(=O)N2c3ccccc3[C@@H](N(C(C)=O)c3ccccc3)C[C@H]2C)c1 [Compound A-126, (2R,4S)-cis-N-[1-(3-methoxy-benzoyl)-2-methyl-1,2,3,4-tetrahydro-quinolin-4-yl]-N-phenyl-acetamide]
< 10 µM	CC(=O)N(c1ccccc1)C1CC(C)N(C(=O)c2sc(-c3ccccc3)nc2C)c2ccccc21 (centres unmarked) [Compound A-156]
< 10 µM	CC(=O)N(c1ccc(Cl)cc1)[C@H]1C[C@@H](C)N(C(=O)c2cccs2)c2ccccc21 [Compound B-7, (2R,4S)-cis-N-(4-chloro-phenyl)-N-[2-methyl-1-(thiophene-2-carbonyl)-1,2,3,4-tetrahydro-quinolin-4-yl]-acetamide]
< 10 µM	COc1cccc(C(=O)N2c3ccccc3[C@@H](N(C(C)=O)c3ccc(Cl)cc3)C[C@H]2C)c1 [Compound B-9, (2R,4S)-cis-N-(4-chloro-phenyl)-N-[1-(3-methoxy-benzoyl)-2-methyl-1,2,3,4-tetrahydro-quinolin-4-yl]-acetamide]
< 10 µM	Cc1ccc(C(=O)N2c3ccccc3[C@@H](N(C(=O)C(C)C)c3ccc(Cl)cc3)C[C@H]2C)s1 [Compound B-11, (2R,4S)-cis-N-(4-Chloro-phenyl)-N-[2-methyl-1-(5-methyl-thiophene-2-carbonyl)-1,2,3,4-tetrahydro-quinolin-4-yl]-isobutyramide]
< 10 µM	CCC(=O)N(c1ccc(Cl)cc1)[C@H]1C[C@@H](C)N(C(=O)c2ccc(OC)cc2)c2ccccc21 [Compound B-18, (2R,4S)-cis-N-(4-chloro-phenyl)-N-[1-(4-methoxy-benzoyl)-2-methyl-1,2,3,4-tetrahydro-quinolin-4-yl]-propionamide]
< 10 µM	CC(=O)N(c1ccc(Cl)cc1)[C@H]1C[C@@H](C)N(C(=O)c2ccc(F)cc2)c2ccccc21 [Compound B-26, (2R,4S)-cis-N-(4-chloro-phenyl)-N-[1-(4-fluoro-benzoyl)-2-methyl-1,2,3,4-tetrahydro-quinolin-4-yl]-acetamide]
< 10 µM	CC(=O)N(c1ccc(Cl)cc1)[C@H]1C[C@@H](C)N(C(=O)c2ccc(C)s2)c2ccccc21 [Compound B-28, (2R,4S)-cis-N-(4-Chloro-phenyl)-N-[2-methyl-1-(5-methyl-thiophene-2-carbonyl)-1,2,3,4-tetrahydro-quinolin-4-yl]-acetamide]
< 10 µM	COc1ccc(C(=O)N2c3ccccc3[C@@H](N(C(C)=O)c3ccc(Cl)cc3)C[C@H]2C)cc1 [Compound B-34, (2R,4S)-cis-N-(4-Chloro-phenyl)-N-[1-(4-methoxy-benzoyl)-2-methyl-1,2,3,4-tetrahydro-quinolin-4-yl]-acetamide]
< 10 µM	COc1ccc(C(=O)N2c3cc(C)ccc3[C@@H](N(C(C)=O)c3ccc(Cl)cc3)C[C@H]2C)cc1 [Compound B-58, (2R,4S)-cis-N-(4-chloro-phenyl)-N-[1-(4-methoxy-benzoyl)-2,7-dimethyl-1,2,3,4-tetrahydro-quinolin-4-yl]-acetamide]
< 10 µM	CCOCCOc1ccc2c(c1)C(N(C(=O)CC)c1ccc(Cl)cc1)CC(C)N2C(=O)c1ccc(F)cc1 (centres unmarked) [Compound B-68]
< 10 µM	CC(=O)N(c1ccc(Cl)cc1)[C@@H]1C[C@H](C)N(C(=O)c2ccc(/C=C/C(=O)O)cc2)c2ccccc21 [Compound C-33, (2S,4R)-3-(4-{4-[Acetyl-(4-chloro-phenyl)-amino]-2-methyl-3,4-dihydro-2H-quinoline-1-carbonyl}-phenyl)-acrylic acid]
< 10 µM	COc1ccc(C(=O)N2c3ccccc3[C@H](N(C(C)=O)c3ccc(C(=O)O)cc3)C[C@@H]2C)cc1 [Compound C-37, (2S,4R)-4-{Acetyl-[1-(4-methoxy-benzoyl)-2-methyl-1,2,3,4-tetrahydro-quinolin-4-yl]-amino}-benzoic acid]
< 10 µM	COc1ccc(C(=O)N2c3ccccc3[C@H](N(C(C)=O)c3cccc(CN)c3)C[C@@H]2C)cc1 [Compound C-38, (2S,4R)-N-(3-Aminomethyl-phenyl)-N-[1-(4-methoxy-benzoyl)-2-methyl-1,2,3,4-tetrahydro-quinolin-4-yl]-acetamide]
< 10 µM	COc1ccc(C(=O)N2c3ccccc3[C@H](N(C(C)=O)c3ccc(C(C)(C)C(=O)O)cc3)C[C@@H]2C)cc1 [Compound D-1, (2S,4R)-2-(4-{Acetyl-[1-(4-methoxy-benzoyl)-2-methyl-1,2,3,4-tetrahydro-quinolin-4-yl]-amino}-phenyl)-2-methyl-propionic acid]
< 10 µM	COc1ccc(C(=O)N2c3ccccc3[C@H](N(C(C)=O)c3ccc(C(=O)CCC(=O)O)c(Cl)c3)C[C@@H]2C)cc1 [Compound D-2, (2S,4R)-4-(4-{Acetyl-[1-(4-methoxy-benzoyl)-2-methyl-1,2,3,4-tetrahydro-quinolin-4-yl]-amino}-2-chloro-phenyl)-4-oxo-butyric acid]
< 10 µM	COc1ccc(C(=O)N2c3ccccc3[C@H](N(C(C)=O)c3ccc(CCC(=O)O)cc3)C[C@@H]2C)cc1 [Compound D-6, (2S,4R)-3-(4-{Acetyl-[1-(4-methoxy-benzoyl)-2-methyl-1,2,3,4-tetrahydro-quinolin-4-yl]-amino}-phenyl)-propionic acid]
< 10 µM	COc1ccc(C(=O)N2c3ccccc3[C@H](N(C(C)=O)c3ccc(OCC(=O)O)cc3)C[C@@H]2C)cc1 [Compound D-10, (2S,4R)-(4-{Acetyl-[1-(4-methoxybenzoyl)-2-methyl-1,2,3,4-tetrahydro-quinolin-4-yl]-amino}-phenoxy)-acetic acid]
< 60 µM	COc1cccc(C(=O)N2c3ccccc3C(N(C(C)=O)c3ccccc3)CC2(C)C)c1 (centres unmarked) [Compound F-1, N-[1-(3-Methoxy-benzoyl)-2,2-dimethyl-1,2,3,4-tetrahydro-quinolin-4-yl]-N-phenyl-acetamide]
< 10 µM	COc1cccc(C(=O)N2CCC(N(C(C)=O)c3ccccc3)c3ccccc32)c1 (centres unmarked) [Compound F-3, N-[1-(3-Methoxy-benzoyl)-1,2,3,4-tetrahydro-quinolin-4-yl]-N-phenyl-acetamide]
